Source: patent publication US9765061B2, “Trail enhancers for the selective killing of cancer cells” (The Scripps Research Institute, priority 2013, dated 2017)

Tests used:
[1] = tested on: cancer and normal cells; assay: XTT-based viability of cancer and normal cells grown 18 h (FIG. 12); type: cell-based; settings: TRAIL alone or the same doses of C12 without TRAIL
Protocol: FIG. 12. (C12) promotes the TRAIL-mediated killing of cancer cells, a), c) Western blot analysis of PARP cleavage in cancer or normal cells treated for 3 h with TRAIL, (C12) or a combination of both, as indicated, b), d) XTT-based assay monitoring the viability of cancer and normal cells grown for 18 h in media containing TRAIL and the indicated doses of (C12). Cell survival was ˜100% in control samples (untreated cells) as well as in samples incubated with TRAIL alone or the same doses of (C12) without TRAIL.
(§1) Cancer and normal cell culture. Lung cancer cell line A549 and colon cancer cell line HT29 were purchased from ATCC. Breast cancer cell line MDA-MB-468 was received from J. C. Reed (The Burnham Institute, La Jolla, Calif.). […]
(§2) Cytotoxicity was determined by using the XTT-based toxicology assay kit (Sigma, St. Louis, Miss.) in accordance with the manufacturer's instructions. For some experiments, to confirm the apoptotic nature of toxicity, cells were analyzed using protocols and instructions of the Annexin V-FITC apoptosis detection kit (Biovision, Mountain View, Calif.). In addition, caspase 3, 8 and 9 activities were determined by colorimetric assays (R&D System), and the data are expressed as fold increases compared to the values of untreated or control-treated cells (n=5).

[2] = tested on: MCF7 cells; assay: PARP cleavage in breast cancer MCF7 cells (Vector, Bcl-2, CLARP); type: cell-based, human; settings: control MCF7, MCF7/Bcl-2 and MCF7/CLARP, FIG. 3B
Protocol: (§3) FIG. 3: Sensitivity of cancerous and non-cancerous cells to apoptosis induced by TNF, C12 or a combination of C12 and TNF. Cells were incubated with TNF, (C12) or a combination of TNF and (C12) as indicated, and the cleavage of PARP (an apoptotic marker) was determined by Western blot. (A and B) Breast cancer MCF-7 cells transfected with control vector (Vector) and vector expressing Bcl-2 or CLARP. (C) HeLa cell line. (D) Normal human bronchial epithelial cells (NHBE).
To further test this hypothesis, we compared sensitivity of breast cancer cell line MCF7 to apoptosis induced by TNF, C12 or their combination. In these experiments we used a control variant of MCF7 (Vector) as well as MCF7 cells stably expressing negative regulators of apoptosis, such as Bcl-2 and CLARP; Bcl-2 is an inhibitor of the intrinsic apoptotic pathway, whereas CLARP inhibits receptor-dependent apoptotic signaling, also called the extrinsic apoptotic pathway. The cells were incubated with TNF, C12 or their combination, and protein extracts were analyzed by Western blot for the cleavage of PARP, a biochemical marker indicative of apoptosis ^26.
Antibodies and Western blot analysis. Anti-eIF2α, phospho-eIF2α[…](p-eIF2α), p38, p-p38 (Thr180/Tyr132), p-RelA (Ser536), p-I κB ? […] Cellular extracts were prepared and analyzed by Western blot assay as previously described.^E3

[3] = tested on: A549 cell line; assay: Viability of A549 cells, XTT-based assay, with or without TRAIL; type: cell-based, human
Protocol: FIG. 4: C12 sensitizes long cancer cell line A549 to TRAIL. (A) Viability of cells was examined after 24-hour incubation in media containing TRAIL (50 ng/ml), compound (C12) (1 μM), compound (C12R) (25 μM) or the indicated combination of TRAIL (T) with (C12) or (C12R). The chemical structures of (C12) and its stereoisomer (C12R) are shown on the right. (B) Viability of cells was examined after 24-hour incubation in media, containing TRAIL (50 ng/ml) and the indicated doses of C12. Viable cells remaining after the treatment were determined as a function of mitochondrial activity of living cells according to XTT-based toxicology assay kit (Sigma) and are shown as a percentage of viable untreated cells.
To test this hypothesis, we examined the effect of C12 in vitro on the activity of TRAIL against A549 cell line derived from a cancer sample of the human lung.
as §2

[4] = tested on: normal human bronchial epithelial cells (NHBE); assay: PARP cleavage in normal human bronchial epithelial cells; type: cell-based; settings: FIG. 3D
Protocol: as §3
Similar experiments were conducted by using normal human bronchial epithelial cells and HeLa cell line as an example of transformed cells. We observed that both HeLa and normal cells were resistant to pro-apoptotic effects of TNF (FIG. 3C and 3D). […] In addition, two stimuli—C12 and TNF—work synergistically against cancerous cells, although normal cells stay intact.
as §1
Antibodies and Western blot analysis. […] Cellular extracts were prepared and analyzed by Western blot assay as previously described.^E3

Structure (SMILES): CCCCCCCCCC(=O)CC(=O)N[C@H]1CCOC1=O [Compound 1, N-(3-oxo-dodecanoyl) homoserine lactone]
- Cell survival [1]: ~100%
- sensitivity to apoptosis (PARP cleavage), compound alone [2]: showed sensitivity
- cell growth and viability, compound alone ([3]; C12 1 μM or 25 μM, C12R 25 μM, no TRAIL): practically unchanged
- sensitivity of A549 cells to TRAIL in the presence of compound ([3]; FIG. 8A): comparable increase in sensitivity
- cytotoxicity at 0.1 µM ([3]; Homo sapiens, A549, 100 nM of C12 and 50 ng/ml of TRAIL, 24-hours incubation, read-out: cells that lost their viability): > 50%
- viability of A549 cells ([3]; combination of TRAIL (50 ng/ml) and C12 (1 μM)): dramatically reduced
- apoptosis (PARP cleavage), compound alone and in combination with TNF [4]: showed resistance
